In patent US20240285808A1, “MOLECULAR PROBES FOR IN VIVO DETECTION OF ALDEHYDES” (The General Hospital Corporation, priority 2021, published 2024):
Values joined by “and” are separate entries in the source; they are usually repeats but may differ in a detail not shown here. Identical values can stand only once. Like-named read-outs stand apart in the source and are kept apart here.

Assays:
liver of BDL rats = experiment: LA-ICP-MS gadolinium imaging of rat liver after Gd-9 MRI; type: in vivo; details: BDL rat liver harvested 30 min p.i.
Protocol: LA-ICP-MS Gadolinium Imaging Analysis
Sample preparation. Harvested rat livers after MR imaging were immediately snapfrozen in OCT using liquid nitrogen, sectioned into 10-μm-thick slices, stored in −80° C. One slice was assessed by LA-ICP-MS directly. One adjacent slide was incubated with 0.1 mM Gd-9 at 37° C. for 2 h, followed with 0.2 mM NaBH3CN for 2 h and washed with PBS (3×10 min). Another adjacent slide was incubated with 0.1 mM Gd-9 and 10 mM hydrazine at 37° C. for 2 h, followed with 0.2 mM NaBH3CN for 2 hand washed with PBS (3×10 min). Similar procedures were carried out for human tissues. Slides were incubated with 0.1 mM Gd-9 at 37° C. for 2h, followed with 0.2 mM NaBH3CN for 2 h and washed with PBS (3×10 min).
Gadolinium mapping. Elemental images were collected from sections of liver tissue via laser ablation inductively coupled plasma mass spectrometry at the Biomedical National Elemental Imaging Resource (BNEIR). The instrumentation used was a New Wave Research 213 nm laser ablation system with a 10 cm^2 sample chamber, interfaced with an Agilent 7900 ICP-MS system. Samples were ablated in no-gas mode, with helium as a carrier gas at a flow rate of 600 L min^−1. […] Elemental imaging data was quantified using metal-doped gelatin standards prepared at BNEIR and National Institute of Standards and Technology (NIST) certified references material 1515 (apple leaves). […]

[1] = system: myocardium of SAMP8/SAMR1 mice with TAC; details: 20 min post injection
From the text: Combined Heart and Lung Fibrosis Model:
Left ventricular dysfunction with pulmonary hypertension was induced by left thoracotomy transverse aortic constriction surgery (TAC) in 6-month-old senescence-accelerated-prone/resistant mice (SAMP8/SAMR1), which is a well-established model of pressure overload-induced cardiac hypertrophy that can induce heart and lung fibrosis. The transverse aorta was encircled with 7-0 nylon suture and tied tightly around a pre-sterilized, blunt-end of a 27-gauge needle. After securing the knot, the needle was removed, and aortic flow resumed. Another two groups of SAMP8 and SAMR1 mice received sham surgery as control. 3-weeks post-surgery, mice were anesthetized with isoflurane (1.5%) and imaged at a 4.7 Tesla Bruker MRI scanner.
For combined heart and lung imaging, a series of baseline images (2D T1 weighted FLASH for heart and 3D-UTE for lung) were first acquired. 2D T1 weighted FLASH: repetition time/echo time=18.24/3.54 ms; flip angle, 50°; field of view, 36×36 mm^2; matrix size, 138×138 mm^2; slice thickness, 1 mm; acquisition time, 3 minutes 50 seconds. 3D-UTE: repetition time/echo time=4/0.01225 ms; flip angle, 16°; field of view, 32×32 mm^2; matrix size, 128×128 mm^2; slice thickness, 0.25 mm; acquisition time, 3 minutes 36 seconds. Then a bolus of Gd-9 complex was administered i.v. and imaging performed for a period of 40 min p.i. with the repetition acquisition of 2D T1 weighted FLASH and 3D-UTE sequences. Following the imaging session, animals were sacrificed and heart and lung tissue was subjected to histopathologic analysis.
For heart imaging analysis, FLASH image pre-contrast and immediately post-contrast were used to define regions of interest (ROIs) in the myocardium that excluded blood vessels. The percentage of signal intensity change (% SI) was calculated by comparing the SI measured after probe injection to SI measured prior to probe injection.

liver of CDAHFD mice = experiment: MR imaging of liver in non-alcoholic steatohepatitis (CDAHFD) model; type: in vivo, mouse; details: 20 min post injection
From the text: Non-Alcoholic Steatohepatitis Liver Fibrosis Model:
A total of 40 C57BL/6 mice were used and randomized to each study group. To induce NASH, 6-week old, male C57BL/6 mice (Charles River Labs, Wilmington, MA) were fed a choline deficient, high fat diet (CDAHFD) consisting of 60 kcal % fat and 0.1% methionine (A06071302; Research Diets, New Brunswick, NJ) by weight. No animals were excluded from the study.
Three groups of mice were studied:
Group A, mice were fed CDAHFD for 2 (n=6), 6 (n=6), 10 (n=6) weeks and imaged with probe Gd-9.
Group B, mice were fed CDAHFD for 10 weeks followed by normal chow for 1 (n=6) or 4 weeks (n=6) and imaged with probe Gd-9.
Group C, mice were fed normal chow for 2, 6, 10, 11 or 14 weeks (n=10) and imaged with probe Gd-9.
Animals were anesthetized with isoflurane (1-2%) and placed in a specially designed cradle with body temperature maintained at 37° C. The inhaled isoflurane level was adjusted to maintain a respiration rate of 60±5 breaths per minute. The tail vein was cannulated for intravenous (i.v.) delivery of the contrast agent while the animal was positioned in the scanner. Imaging was performed at 4.7 T using a small bore animal scanner with a custom-built volume coil. Mice were imaged with a dose of 100 μmol/kg from 30 mM stock solution of Gd or Mn complex.
Following the imaging session, animals were sacrificed (75 min p.i.) and liver tissue was subjected to histopathologic analysis.
For liver imaging analysis, a region of interest (ROI) was manually traced encompassing the liver parenchyma while avoiding major blood vessels. A second ROI was placed on the dorsal muscle visible in the same image slice to quantify the signal intensity in the muscle for comparison. Seven ROIs were placed in the field of view without any tissue (air) to measure the variation in background signal. More than 20 axial slices per mouse across the entire liver were analyzed in this fashion. […] Contrast to noise ratio (CNR) was calculated by measuring the difference in signal intensity (SI) between liver and muscle and normalizing to the standard deviation of the signal in the air, eq 21. ΔCNR was calculated by subtracting CNR measured prior to probe injection (CNRPre) from CNR measured after injection (CNRPost), eq 22.
Mice were fed with CDAHFD or standard chow for 2, 6, or 10 weeks; two additional groups of mice received CDAHFD for 10 weeks and then standard chow for 1 or 4 weeks (FIG. 70; 2 wk, 6 wk, and 10 wk bars correspond to CDAHFD; 1 wk and 4 wk bars correspond to standard chow; “MRI” indicates MRI with Gd-9).

NN1CCN(C(=O)CCC(C(=O)[O-])N2CCN(CC(=O)[O-])CCN(CC(=O)[O-])CCN(C(CCC(=O)N3CCN(N)CC3)C(=O)[O-])CC2)CC1.[Gd+3] (stereo not drawn) [Gd-9, cis-1,4-Gd-(CHyd)2]
Gd accumulation in fibrotic septa (LA-ICP-MS) (liver of BDL rats): ~50 ppm | % SI change of myocardium ([1]; SAMP1-Sham): 7.8 ± 4.7% | % SI change of myocardium ([1]; SAMP1-TAC): 21.5 ± 8.4% | % SI change of myocardium ([1]; SAMP8-Sham): 8.2 ± 5.3% | % SI change of myocardium ([1]; SAMP8-TAC): 22 ± 7.9% | ΔCNR of liver (row head ACNR) (liver of CDAHFD mice; 2 wk CDAHFD): 1.3±0.4 and 1.3 ± 0.3 | ΔCNR of liver (row head ACNR) (liver of CDAHFD mice; 6 wk CDAHFD): 2.1 ± 0.4 | ΔCNR of liver (row head ACNR) (liver of CDAHFD mice; 10 wk CDAHFD then 1 wk Withdrawal): 0.9±0.3 | ΔCNR of liver (row head ACNR) (liver of CDAHFD mice; 10 wk CDAHFD then 4 wk Withdrawal): 0.3±0.2 | ΔCNR of liver (row head ACNR) (liver of CDAHFD mice; 10 wk CDAHFD): 2.5±0.5 | ΔCNR of liver (row head ACNR) (liver of CDAHFD mice; Control (standard chow)): 0.1±0.4
